One experiment relates to ROS in SR cells. Put plainly: Mitochondrial production of ROS. In kind it is cell-based, human. As to conditions: 30 min at 37 °C. As to the method:
Mitochondria play an essential role in the propagation of apoptosis. It is reported that, at an early stage, apoptotic stimuli are capable of modifying the mitochondrial transmembrane potential (Δψmt). Δψmt was recorded by the fluorescence of the dye JC-1.20. […] . The disruption of Δψmt is associated with the appearance of annexin V positivity in the treated cells when they are in an early apoptotic stage. It is documented that the dissipation of Δψmt is characteristic of apoptosis, and this was indicated with both microtubule-stabilizing and -destabilizing agents in different cell types. […] Mitochondrial membrane depolarization is associated with mitochondrial production of ROS [35]. Therefore, we investigated whether ROS production increased after treatment with the test compounds.
Figure 13 Mitochondrial production of ROS in SR cells with 3a and colchicine reference compared to control. […]
5. Adjust the cell concentration so at least 1 x10^4 cells should be analyzed per experimental condition. […] Mean fluorescence intensity in Ex/Em = 495/529 nm can be quantified and compared between untreated cells and cells treated with test compounds, or between different cell types. […]
4. For adherent cells: remove the ROS Label, add 100 μl of ROS Assay Buffer or PBS and measure fluorescence immediately, or treat the cells with 100 μL of diluted test compound(s) for desired period of time. […]

For a further experiment, the system named is caspase-3. Kind of experiment: Caspase-3 ELISA on leukemia SR cell line. As to conditions: for Caspase 3 Conc: ± SD. Type of experiment: cell-based, human. The protocol:
Since caspase-3 is important for spreading the apoptotic signal after exposure to antimitotic compounds [38], the effect of compound 3a on the caspase-3 activated enzyme was evaluated using ELISA and replicated three times. The reference compound and 3a were incubated for 30 min at room temperature in the dark on the leukemia SR cell line. […]
color. Add 50 μL of Stop solution into each well and mix thoroughly. The color changes […]
9. Read the O.D. absorbance at 450 nm in a micro-plate reader immediately after adding the
Caspase assay is performed according to the following procedures:
1. Allowing all reagents to reach room temperature before use. Gently mix all liquid reagents prior to use (Note: A standard curve must be run with each assay).
2. Determine the number of 8-well strips needed for the assay. Insert these in the frame(s) for current use. (Re-bag extra strips and frame. Store these in the refrigerator for future […]
3. Add 100 μL of the Standard Diluent Buffer to the zero standard wells. Well(s) reserved for chromogen blank should be left empty.
4. Add 100 μL of standards and controls or diluted samples to the appropriate microtiter wells. The sample dilution chosen should be optimized for each experimental system.
Tap gently on side of plate to mix.
5. Cover wells with plate cover and incubate for 2 hours at room temperature.
6. Thoroughly aspirate or decant solution from wells and discard the liquid. Wash wells 4 times. See Directions for Washing.
7. Pipette 100 μL of Caspase-3 (Active) Detection Antibody solution into each well except the chromogen blank(s). Tap gently on the side of the plate to mix.
8. Cover plate with plate cover and incubate for 1 h at room temperature.
9. Thoroughly aspirate or decant solution from wells and discard the liquid.
10. Wash wells 4 times. See Directions for Washing.
11. Add 100 μL Anti-Rabbit IgG HRP Working Solution to each well except the chromogen blank(s). Prepare the working dilution as described in Preparing IgG HRP.
12. Cover wells with the plate cover and incubate for 30 minutes at room temperature.
13. Thoroughly aspirate or decant solution from wells and discard the liquid. Wash wells 4
14. Add 100 μL of Stabilized Chromogen to each well. The liquid in the wells will begin to
15. Incubate for 30 min at room temperature and in the dark. […]
with aluminum foil or metalized mylar. The incubation time for chromogen substrate is often determined by the microtiter plate reader used. Many plate readers have the capacity to record a maximum optical density (O.D.) of 2.0. The O.D. values should be monitored and the substrate reaction stopped before the O.D. of the positive wells exceeds the limits of the instrument. The O.D. values at 450 nm can only be read after the Stop Solution has been added to each well. If using a reader that records only to 2.0 O.D., […]
16. Add 100 μL of Stop Solution to each well. Tap side of plate gently to mix. The solution in the wells should change from blue to yellow.
17. Read the absorbance of each well at 450 nm having blanked the plate reader against a chromogen blank composed of 100 μL each of Stabilized Chromogen and Stop Solution.
Read the plate within 2 hours after adding the Stop Solution.
18. Use a curve fitting software to generate the standard curve. A four-parameter algorithm provides the best standard curve fit.
19. Read the concentrations for unknown samples and controls from the standard curve.
Multiply value(s) obtained for sample(s) by the appropriate dilution factor to correct for the dilution in step 3. […]
A general note: In an ELISA, binding on a coated surface is turned into a signal by an enzyme label.

With `COc1cc2c(c(OC)c1OC)-c1ccc(OC)c(=O)cc1[C@@H](NC(C)=O)CC2` [Colchicine, colchicine, reference compound], the “ROS % of control” value in the experiment with ROS in SR cells is given as 96.18%. In addition, in the experiment with caspase-3, the “level of active caspase-3” value was 428.9 ng/mL and the “Caspase 3 Conc” value came out at 428.9 ± 5.47 pg/mL.
As to `COC(=O)C=C1SC(=NNC(=O)c2cc3ccc2CCc2ccc(cc2)CC3)N(c2ccccc2)C1=O` [Compound 3a], the “ROS % of control” value in the experiment on ROS in SR cells is 112.10%. Further, in the experiment on caspase-3, the “level of active caspase-3” value is 471.2 ng/mL and the “Caspase 3 Conc” value came out at 471.2 ± 6.11 pg/mL. Moreover, the “Caspase 3 Fold Change” value in the experiment on caspase-3 (relative to control) was found to be 8.84 fold.
